Values after ≈ are worked out from the molar mass of the structure shown. Values joined by “and” are separate entries in the source; they are usually repeats but may differ in a detail not shown here. Equal entries are not always repeated. Where two headings read alike, the source gives them in different places.
What was measured:
[1] = DMSO and water/DMSO (98:2) stability (UV-Vis); assay type: physicochemical; conditions: room temperature
Protocol: (§1) UV-Visible spectrums were measured with a UV3600 UV -Vis-NIR spectrophotometer in a range of 500 -200 nm using a quartz cuvette. The measurements were determined at λ values corresponding to the maximum of absorption . Baselines were determined with MeOH :media (1:1) mixture . Sample concentrations were determined using maximum absorption value s. All compounds were tested in […]
(§2) Preparation of calibration curve
(§3) From this solution, different volumes were combined with MeOH:media (1:1) mixture to obtain concentrations between 2.0 – 40.0 µg/mL. […]
(§4) intestinal fluid (SIF, pH 6.8) or phosphate buffered saline solution (PBS, pH 7.4) was added. The vial contents were mixed at 1500 rpm at 37 °C for 24 h and then incubated at 37 °C for 24 h without stirring. Samples were filtered (0.2 μm, Sterile Acrodisc® 13, GelmanScience) before analysis.
(§5) The filtered solutions were diluted in MeOH:media (1:1) mixture to achieved final concentrations of 0.01 (SGF), 0.02 (SIF) and 0.04 µg/mL (PBS). Verapamil and pr ocaine were used as internal […]
(§6) DMSO and water/DMSO (98:2) stability […]
were measured in a range of 500-200 nm using a quartz cuvette and the absorption was determined at 331 nm. Samples with 1.0 mg of 1.9 in 1 mL of DMSO or water/DMSO (98:2) mixture were prepared, and they were kept at room temperature without stir ring. Independent samples were measured every 1 week over 5 weeks. […]

[2] = Shake-flask solubility (UV-Vis); assay type: physicochemical; conditions: thermodynamic from solid
Protocol: Verapamil was used as internal control. More detailed information is available in the Supplementary Material.
as §1, §2, §3, §4, §5, §6
were measured in a range of 500-200 nm using a quartz cuvette and the absorption was determined at 331 nm. Samples with 1.0 mg of 1.9 in 1 mL of DMSO or water/DMSO (98:2) mixture were prepared, and they were kept at room temperature without stir ring. Independent samples were measured every 1 week over 5 weeks. For the measurements, solutions were diluted at 1/100 in DMSO and 1/50 in water:DMSO (98:2) mixture. The values in the chart are the mean of three

[3] = Bovine plasma stability (HPLC-MS); assay type: in vitro ADME; conditions: 120 min incubation, read-out: Stability t1/2 Bovine plasma
Protocol: (§7) Stability assays were performed according to the procedure described in a previous work (Leal et al., [2019]). Samples were taken at different incubation times and analyzed by high-performance liquid chromatography–mass spectrometry (HPLC–MS) using a Waters Alliance e2695 system (Waters Corporation, Milford, MA, USA) fitted with a Phenomenex Kinetex® XB-C18 column (150 × 4.6 mm, 5-μm particle size, Phenomenex Inc., Torrance, CA, USA) coupled to a Waters SQD2 single quadrupole mass spectrometer with an ESI source. A gradient elution was applied using 40% water and 0.1% acetic acid (mobile phase A) and 40% methanol (mobile phase B), with the following program: 0–3 min 40% B; 3–7 min 40–90% B; and 7–20 min 90% B. The flow rate was kept constant at 0.35 ml min^−1. […]
(§8) Compound 1.9 was selected to perform in vitro physicochemical studies (solubility and stability). The solubility (S) was evaluated at SGF (pH 1.2), SIF (pH 6.8), and PBS solution (pH 7.4), employing the shake-flask method with UV spectroscopy (Bollini et al., [2013]). […] The stability was evaluated by calculating the percentage of remaining drug (HPLC–MS) after contact with different incubation media (SIF, SGF, PBS, mouse, and bovine plasma) for 120 min. […] Neither compound modification nor degradation was detected after the different incubation periods. […]

[4] = Stability in SGF, SIF, PBS (HPLC-MS); assay type: physicochemical
Protocol: Stability assays were performed according to the procedure described in a previous work (Leal et al., [2019]). Samples were taken at different incubation times and analyzed by high-performance liquid chromatography–mass spectrometry (HPLC–MS) using a Waters Alliance e2695 system (Waters Corporation, Milford, MA, USA) fitted with a Phenomenex Kinetex® XB-C18 column (150 × 4.6 mm, 5-μm particle size, Phenomenex Inc., Torrance, CA, USA) coupled to a Waters SQD2 single quadrupole mass spectrometer with an ESI source. A gradient elution was applied using 40% water and 0.1% acetic acid (mobile phase A) and 40% methanol (mobile phase B), with the following program: 0–3 min 40% B; 3–7 min 40–90% B; and 7–20 min 90% B. The flow rate was kept constant at 0.35 ml min^−1. After each sample injection, the gradient was returned to its initial conditions in 16 min. The injection volume was 5 μl. The column temperature was 35°C. The mass spectrometer was operated in positive ion mode with a probe capillary voltage of 2.5 kV. The sampling cone voltage was set to 35.0 V. The source and desolvation gas temperatures were set at 150 and 350°C, respectively. The nitrogen gas desolvation flow rate was 600 L h^−1, and the cone gas flow rate was 10 L h^−1. The mass spectrometer was calibrated across the range of m/z 20–2,023 with a sodium and cesium iodide solution. Data were acquired in scan mode with a scan duration of 0.2 s and in SIR mode with unit resolution. Data acquisition and processing were carried out using MassLynx software, version 4.1. […]
as §8

[5] = Mouse plasma stability (HPLC-MS); assay type: in vitro ADME; conditions: mouse/murine plasma, 120 min incubation; read-out: Stability t1/2 Mouse/murine plasma
Protocol: as §7, §8

BVDV type 1 NADL strain = assay: Anti-BVDV assay (CPE reduction, MTS/PMS); assay type: cell-based, Bovine viral diarrhea virus; conditions: for EC50: BVDV NADL in MDBK cells, MOI 0.01, 3 days, reduces viral CPE by 50%, Inactive: <50% of inhibition of CPE at MNCC
Protocol: (A) Cytotoxicity. […] Mock-treated cells were added as control. […] (B) Antiviral activity.
Madin-Darby bovine kidney cells (MDBK NBL-1; ATCC CCL-22) were grown in Eagle's Minimum Essential Medium (E-MEM), supplemented with 10% biotechnological fetal bovine serum (Internegocios, Argentina) (GM) at 37°C and 5% CO2. The BVDV type 1 NADL strain, cytopathic biotype (BVDV-1, ATCC VR 534), was provided by Dr. Laura Weber (INTA Castelar, Argentina).
Then, serial dilutions of the test compounds in IM were added. […] After incubation for 3 days at 37°C and 5% CO2, the culture medium was removed, cell monolayers were washed twice with PBS, and IM supplemented with MTS/PMS was added to each well. The absorbance of each well was read at 490 nm. The EC50 was defined as the concentration of compound that prevented 50% of the virus-induced CPE and was calculated by interpolation in dose–response curves.

MDBK cells = assay: Cytotoxicity assay (MTS/PMS); conditions: MDBK cells, 3 days
Protocol: (§9) (A) Cytotoxicity. Sub-confluent MDBK cell monolayers grown in 96-well plates were treated with 2-fold serial dilutions of each compound in IM. Mock-treated cells were added as control. Cells were incubated and allowed to proliferate for 3 days at 37°C and 5% CO2. Cell viability was then determined by the MTS/PMS method. (B) Antiviral activity. Sub-confluent MDBK cell monolayers grown in 96-well plates were infected with BVDV NADL (MOI = 0.01) and treated with different concentrations of the compounds. Mock-infected cells and mock-treated infected cells were included as controls in each plate. After 3 days at 37°C and 5% CO2, cell viability was determined by the MTS/PMS method, and the percentage of the viral CPE inhibition was calculated.
(§10) MDBK cells were seeded in 96-well plates at a density of 1 × 10^4 cells per well in GM. After 24 h, the culture medium was removed, monolayers were washed twice with phosphate-buffered saline (PBS), and serial dilutions of the test compounds were made in E-MEM supplemented with donor horse serum (DHS, Gibco, IM) and added. Cultures were incubated for 3 days at 37°C, and then, cell viability was determined by the MTS/PMS method according to the manufacturer's instructions (Promega). After incubation for 3 h at 37°C and 5% CO2, the absorbance was determined at 490 nm. The 50% cytotoxic concentration (CC50) was defined as the concentration of compound that inhibited the proliferation of exponentially growing cells by 50% and was calculated by interpolation in dose–response curves.

[6] = Cytotoxicity assay (MTS/PMS); conditions: bovine, MDBK cells
Protocol: as §9, §10

OCCN1CCN(c2nc(-c3ccccc3)nc3ccccc23)CC1 [Compound 1.9, 2-[4-(2-Phenylquinazolin-4-yl)piperazin-1-yl]ethanol]
time stable in DMSO ([1]; 1.0 mg/mL in DMSO): ≥ 5 weeks | time stable in water/DMSO (98:2) ([1]; 1.0 mg/mL in water/DMSO (98:2)): ≥ 5 weeks | solubility at 24 h ([2]; phosphate buffered saline (PBS), aqueous buffer, PBS pH 7.4, 37 °C, read-out: Solubility PBS): 300 ± 100 µg/mL (≈ 897 µM) | solubility at 24 h ([2]; simulated gastric fluid (SGF), simulated gastric fluid pH 1.2, 37 °C, read-out: Solubility SGF): 8700 ± 400 µg/mL (≈ 26000 µM) | solubility at 24 h ([2]; simulated intestinal fluid (SIF), fassgf or other biorelevant, simulated intestinal fluid pH 6.8, 37 °C, read-out: Solubility SIF): 400 ± 200 µg/mL (≈ 1200 µM) | half-life [3]: > 2 h | half-life ([4]; PBS pH 7.4, 120 min incubation, read-out: Stability t1/2 PBS): > 2 h | half-life ([4]; simulated gastric fluid (SGF), SGF pH 1.2, 120 min incubation, read-out: Stability t1/2 SGF): > 2 h | half-life ([4]; simulated intestinal fluid (SIF), SIF pH 6.8, 120 min incubation, read-out: Stability t1/2 SIF): > 2 h | half-life [5]: > 2 h | EC50 (BVDV type 1 NADL strain; read-out: EC50): 1.8 ± 0.4 µM | EC50 (BVDV type 1 NADL strain; Bovine viral diarrhea virus isolates and strains, MDBK, 72 h): 1.7 ± 0.4 µM | SI (CC50/EC50) (BVDV type 1 NADL strain; in vitro selectivity index, MDBK cells / BVDV NADL): 17.8 | MNCC (maximum non-cytotoxic concentration) (MDBK cells): 12.5 µM and 12.5 ± 2.4 µM | CC50 at 3 days [6]: 32 ± 1.9 µM

Reference: publication PMC7793975, “Design and Optimization of Quinazoline Derivatives: New Non-nucleoside Inhibitors of Bovine Viral Diarrhea Virus” (Frontiers in Chemistry, 2020)
